How the values were obtained:
[1] = compound: C1CC(C1)(C(=O)[O-])C(=O)[O-].N.N.[Pt+2] [Carboplatin]; conditions: max 10 µM
Outline: (§1)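 Plates with 1536 wells received cancer cell lines in 7.5 μl of DMEM/F12 or RPMI containing 10% FBS. After 24 hours at 37°C and 5% CO2, cells were dosed for 72 hours with final DMSO typically 0.2%, and viability was read by CellTiter-Glo 2.0 luminescence scaled between blank-well and DMSO-well means. The single-agent IC50 was taken from a logistic fit of the dose responses made with a non-linear mixed effects model, that logistic curve having two parameters.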

[2] = compound: C1CN(CCC1(C(=O)N[C@@H](CCO)C2=CC=C(C=C2)Cl)N)C3=NC=NC4=C3C=CN4 [AZD5363]; conditions: max 10 µM
Outline: as §1

[3] = compound: C=CCn1c(=O)c2cnc(Nc3ccc(N4CCN(C)CC4)cc3)nc2n1-c1cccc(C(C)(C)O)n1 [AZD1775]; conditions: max 3 µM
Outline: as §1

[4] = compound: CC(=O)Nc1cccc(-n2c(=O)n(C3CC3)c(=O)c3c(Nc4ccc(I)cc4F)n(C)c(=O)c(C)c32)c1 [Trametinib]; conditions: max 1 µM
Outline: as §1

[5] = compound: CC(=O)O[C@H]1C(=O)[C@@]2(C)[C@H]([C@H](OC(=O)c3ccccc3)[C@]3(O)C[C@H](OC(=O)[C@H](O)[C@@H](NC(=O)c4ccccc4)c4ccccc4)C(C)=C1C3(C)C)[C@]1(OC(C)=O)CO[C@@H]1C[C@@H]2O [Paclitaxel]; conditions: max 3 µM
Outline: as §1

[6] = compound: CC(=O)c1c(C)c2cnc(Nc3ccc(N4CCNCC4)cn3)nc2n(C2CCCC2)c1=O [Palbociclib]; conditions: max 10 µM
Outline: as §1

[7] = compound: CC(C)n1c(=O)n(C)c2cnc3cc(F)c(-c4ccc(OCCCN5CCCCC5)nc4)cc3c21 [AZD1390]; conditions: max 0.3 µM
Outline: as §1

[8] = compound: CC1(C)CCC(CN2CCN(c3ccc(C(=O)NS(=O)(=O)c4ccc(NCC5CCOCC5)c([N+](=O)[O-])c4)c(Oc4cnc5[nH]ccc5c4)c3)CC2)=C(c2ccc(Cl)cc2)C1 [Venetoclax]; conditions: max 1 µM
Outline: as §1

[9] = compound: CC1=C(C(=CC=C1)Cl)NC(=O)C2=CN=C(S2)NC3=CC(=NC(=N3)C)N4CCN(CC4)CCO [Dasatinib]; conditions: max 2 µM
Outline: as §1

[10] = compound: CC1=CN2[C@@H](C1)C=NC3=CC(=C(C=C3C2=O)OC)OCCCCCOC4=C(C=C5C(=C4)N=C[C@@H]6CC(=CN6C5=O)C)OC [SG3199]; conditions: max 0.001 µM
Outline: as §1

[11] = compound: CCN(CCO)CCCOc1ccc2c(Nc3cc(CC(=O)Nc4cccc(F)c4)[nH]n3)ncnc2c1 [AZD2811]; conditions: max 1 µM
Outline: as §1

[12] = compound: CCc1c2c(nc3ccc(O)cc13)-c1cc3c(c(=O)n1C2)COC(=O)[C@]3(O)CC [SN-38]; conditions: max 0.3 µM
Outline: as §1

[13] = compound: CN(C)CCCOc1ccc(-c2ccc3ncc4c(c3c2)n(C2CCOCC2)c(=O)n4C)cn1 [AZD0156]; conditions: max 3 µM
Outline: as §1

[14] = compound: CN(CC[C@H](CSC1=CC=CC=C1)NC2=C(C=C(C=C2)S(=O)(=O)NC(=O)C3=CC=C(C=C3)N4CCC(CC4)[C@H](C5=CC=CC=C5C6=CC=C(C=C6)Cl)O)S(=O)(=O)C(F)(F)F)CCO [AZD4320]; conditions: max 1 µM
Outline: as §1

[15] = compound: COc1cc(Nc2ncc3c(n2)-c2ccc(Cl)cc2C(c2c(F)cccc2OC)=NC3)ccc1C(=O)O [Alisertib]; conditions: max 10 µM
Outline: as §1

[16] = compound: COc1cc([C@@H]2c3cc4c(cc3[C@@H](O[C@@H]3O[C@@H]5CO[C@@H](C)O[C@H]5[C@H](O)[C@H]3O)[C@H]3COC(=O)[C@H]23)OCO4)cc(OC)c1O [Etoposide]; conditions: max 10 µM
Outline: as §1

[17] = compound: COc1cc2ncnc(Nc3ccc(F)c(Cl)c3)c2cc1OCCCN1CCOCC1 [Gefitinib]; conditions: max 10 µM
Outline: as §1

[18] = compound: COc1cccc(OCCCN)c1-c1cc(Nc2cnc(C#N)cn2)n[nH]1 [Prexasertib]; conditions: max 1 µM
Outline: as §1

[19] = compound: COc1cccc2c1C(=O)c1c(O)c3c(c(O)c1C2=O)C[C@@](O)(C(=O)CO)C[C@@H]3O[C@H]1C[C@H](N)[C@H](O)[C@H](C)O1 [Doxorubicin]; conditions: max 1 µM
Outline: as §1

[20] = compound: COc1nnc2ccc(N3CCC(c4ccc(OCCN5CCN(C)C(=O)[C@H]5C)cc4)CC3)nn12 [AZD5153]; conditions: max 1 µM
Outline: as §1

[21] = compound: CS(=O)(=O)CCNCc1ccc(-c2ccc3ncnc(Nc4ccc(OCc5cccc(F)c5)c(Cl)c4)c3c2)o1 [Lapatinib]; conditions: max 10 µM
Outline: as §1

[22] = compound: C[C@@H](Nc1cc(F)cc(F)c1)c1cc(C(=O)N(C)C)cc2c(=O)cc(N3CCOCC3)oc12 [AZD8186]
Outline: as §1

[23] = compound: C[C@@H](Oc1cc(-c2cnn(C3CCNCC3)c2)cnc1N)c1c(Cl)ccc(F)c1Cl [Crizotinib]; conditions: max 10 µM
Outline: as §1

[24] = compound: C[C@@H](c1ccc2nccn2c1)n1nnc2ncc(-c3cnn(C)c3)nc21 [Savolitinib]; conditions: max 1 µM
Outline: as §1

[25] = compound: C[C@@H]1COCCN1C2=NC(=NC(=C2)C3(CC3)[S@](=N)(=O)C)C4=C5C=CNC5=NC=C4 [AZD6738]; conditions: max 10 µM
Outline: as §1

[26] = compound: Cc1c2c(nn1C)CSCc1cc(n(C)n1)CSc1cc(c3ccccc3c1)OCCCc1c(C(=O)O)n(C)c3c-2c(Cl)ccc13 [AZD5991]; conditions: max 1 µM
Outline: as §1

[27] = compound: Cc1cc2ncnn2cc1Nc1ncc2c(n1)n(C1CCOCC1)c(=O)n2C [AZD7648]; conditions: max 10 µM
Outline: as §1

[28] = compound: Cc1nc(-c2cn3c(n2)-c2ccc(-c4cnn(C(C)(C)C(N)=O)c4)cc2OCC3)n(C(C)C)n1 [Taselisib]; conditions: max 10 µM
Outline: as §1

[29] = compound: Cn1cnc2c(F)c(Nc3ccc(Br)cc3Cl)c(C(=O)NOCCO)cc21 [Selumetinib]; conditions: max 10 µM
Outline: as §1

[30] = compound: N#Cc1cnc(Nc2cc(NC[C@H]3CNCCO3)c(C(F)(F)F)cn2)cn1 [SRA737]; conditions: max 10 µM
Outline: as §1

[31] = compound: NC1(c2ccc(-c3nc4ccn5c(=O)[nH]nc5c4cc3-c3ccccc3)cc2)CCC1 [MK-2206]; conditions: max 10 µM
Outline: as §1

[32] = compound: Nc1ccn([C@@H]2O[C@H](CO)[C@@H](O)C2(F)F)c(=O)n1 [Gemcitabine]; conditions: max 0.3 µM
Outline: as §1

[33] = compound: O=C(Nc1ccc2[nH]nc(-c3ccncc3)c2c1)[C@@H]1CCN(CC(=O)N2CCN(c3ccc(-c4ncccn4)cc3)CC2)C1; conditions: max 5 µM
Outline: as §1

[34] = compound: O=C(c1cc(Cc2n[nH]c(=O)c3ccccc23)ccc1F)N1CCN(C(=O)C2CC2)CC1 [Olaparib]; conditions: max 10 µM
Outline: as §1

[35] = compound: O=c1[nH]cc(F)c(=O)[nH]1 [5-Fluorouracil]; conditions: max 20 µM
Outline: as §1

[36] = compound: C1CN(CCC1(C(=O)N[C@@H](CCO)C2=CC=C(C=C2)Cl)N)C3=NC=NC4=C3C=CN4 [Capivasertib]; conditions: max 10 µM
Outline: as §1

| Cell Line | IC50, cell viability 72 h [1] | IC50, cell viability 72 h [2] | IC50, cell viability 72 h [3] | IC50, cell viability 72 h [4] | IC50, cell viability 72 h [5] | IC50, cell viability 72 h [6] | IC50, cell viability 72 h [7] | IC50, cell viability 72 h [8] | IC50, cell viability 72 h [9] | IC50, cell viability 72 h [10] | IC50, cell viability 72 h [11] | IC50, cell viability 72 h [12] | IC50, cell viability 72 h [13] | IC50, cell viability 72 h [14] | IC50, cell viability 72 h [15] | IC50, cell viability 72 h [16] | IC50, cell viability 72 h [17] | IC50, cell viability 72 h [18] | IC50, cell viability 72 h [19] | IC50, cell viability 72 h [20] | IC50, cell viability 72 h [21] | IC50, cell viability 72 h ([22]; max 10 µM) | IC50, cell viability 72 h [23] | IC50, cell viability 72 h [24] | IC50, cell viability 72 h [25] | IC50, cell viability 72 h [26] | IC50, cell viability 72 h [27] | IC50, cell viability 72 h [28] | IC50, cell viability 72 h [29] | IC50, cell viability 72 h [30] | IC50, cell viability 72 h [31] | IC50, cell viability 72 h [32] | IC50, cell viability 72 h [33] | IC50, cell viability 72 h [34] | IC50, cell viability 72 h [35] | IC50, cell viability 72 h [36] | IC50, cell viability 72 h ([22]; max 3 µM) |
| --- | --- | --- | --- | --- | --- | --- | --- | --- | --- | --- | --- | --- | --- | --- | --- | --- | --- | --- | --- | --- | --- | --- | --- | --- | --- | --- | --- | --- | --- | --- | --- | --- | --- | --- | --- | --- | --- |
| JHH-7 (Hepatocellular Carcinoma) | > 10000 nM | > 10000 nM | 2610 nM | > 1000 nM | 660 nM | > 10000 nM | > 300 nM | > 1000 nM | > 2000 nM | > 1 nM | > 1000 nM | > 300 nM | > 3000 nM | > 1000 nM | > 10000 nM | > 10000 nM | > 10000 nM | > 1000 nM | > 1000 nM | > 1000 nM | > 10000 nM | > 10000 nM | > 10000 nM | > 1000 nM | > 10000 nM | > 1000 nM | > 10000 nM | > 10000 nM | > 10000 nM | > 10000 nM | > 10000 nM | > 300 nM | > 5000 nM | > 10000 nM | > 20000 nM |  |  |
| H-EMC-SS (Chondrosarcoma) | > 10000 nM | > 10000 nM | > 3000 nM | 293 nM | > 3000 nM | > 10000 nM | > 300 nM | > 1000 nM | > 2000 nM | > 1 nM | > 1000 nM | 153 nM | > 3000 nM | > 1000 nM | 8380 nM | > 10000 nM | > 10000 nM | > 1000 nM | 428 nM | > 1000 nM | > 10000 nM | > 10000 nM | > 10000 nM | > 1000 nM | > 10000 nM | > 1000 nM | > 10000 nM | 3360 nM | > 10000 nM | > 10000 nM | > 10000 nM | > 300 nM | > 5000 nM | > 10000 nM | > 20000 nM |  |  |
| NCI-H513 (Other Solid Carcinomas) |  |  | > 3000 nM | 643 nM |  | > 10000 nM | > 300 nM | > 1000 nM | > 2000 nM | > 1 nM | > 1000 nM | 210 nM | > 3000 nM | > 1000 nM | > 10000 nM |  | > 10000 nM | > 1000 nM | > 1000 nM | > 1000 nM | > 10000 nM |  | > 10000 nM | > 1000 nM | > 10000 nM | > 1000 nM | > 10000 nM | > 10000 nM | > 10000 nM |  | > 10000 nM |  |  | > 10000 nM |  | > 10000 nM | > 3000 nM |

— the supplement of paper PMC11061612
